Data taken from PubChem BioAssay AID652062 (Broad Institute, 2013).
Where “and” joins values, the source holds several entries; their conditions need not be identical. Equal values may be shown once.

tested on: HeLa-AD8 Env / CEM-CCR5 cell fusion, luciferase; experiment: HIV-1 AD8 envelope cell-cell fusion blockers – cherry-pick, dose response (AID 652062)

Row | SMILES | AC50
1 | O=C(C[C@H]1C[C@H]2c3cc(NC(=O)c4ccc5c(c4)OCO5)ccc3O[C@H]2[C@H](CO)O1)NCc1ccc(Oc2ccccc2)cc1 | 15.1 µM
2 | C[C@H](CO)N1C[C@H](C)[C@H](CN(C)S(=O)(=O)c2ccccc2)Oc2ncc(/C=C/c3ccccc3)cc2C1=O | 23.8 µM and 3.07 µM
3 | COC(=O)C1(C(=O)OC)C[C@H](c2ccc(OC)cc2)N(Cc2ccccc2OC)[C@@H]1c1cccs1 | 2.49 µM and 11.3 µM
